# Data from EP0399422A1, “Benzocycloalkane derivatives and production thereof” (Takeda Chemical Industries, Ltd., priority 1989, dated 1990).
# Test system: Acyl-CoA:cholesterol acyl transferase (ACAT)
# Test: Acyl-CoA:cholesterol acyl transferase (ACAT) inhibiting activity
# Format: biochemical, male Sprague-Dawley rats
# Parameters: tested at 1 µM
# Details: inhibition of labeled cholesterol ester formation at 10⁻⁶ M of the test compounds; small intestine mucosa microsome fraction
# Method: An ACAT enzyme preparation was obtained from the small intestine mucosa microsome fraction from male Sprague-Dawley rats of 6 weeks of age fasted for 20 hours, as described by Heider et al. [Journal of Lipid Research, 24, 1127 (1982)].
# The ACAT activity was calculated by determining the yield of a labeled cholesterol ester from [1-¹⁴C]oleoyl-CoA and endogenous cholesterol using the method of Helgerud et al. [Journal of Lipid Research, 22, 271 (1981)].
# The inhibition percentages of the labeled cholesterol ester formation at 10⁻⁶ M of the test compounds are shown in Table 1 as ACAT inhibiting activity indices.
row,Compound,% ACAT inhibition
1,"O=C(Nc1ccc(F)cc1F)N(Cc1ccccc1)C1Cc2ccccc2C1 [Example 2, N-Benzyl-N′-(2,4-difluorophenyl)-N-(2-indanyl)urea]",65%
2,"O=C(Nc1ccc(F)cc1F)N(Cc1ccc(Cl)cc1)C1Cc2ccccc2C1 [Example 5, N-(4-Chlorobenzyl)-N′-(2,4-difluorophenyl)-N-(2-indanyl)urea]",76%
3,"CC(c1ccccc1)N(C(=O)Nc1ccc(F)cc1F)C1Cc2ccccc2C1 (stereo not shown) [Example 6, N-(2,4-Difluorophenyl)-N′-(2-indanyl)-N′-(1-phenylethyl)urea]",80%
4,"CCC(c1ccccc1)N(C(=O)Nc1ccc(F)cc1F)C1Cc2ccccc2C1 (stereo not shown) [Example 7, N-(2,4-Difluorophenyl)-N′-(2-indanyl)-N′-(1-phenylpropyl)urea]",72%
5,"O=C(Nc1ccc(F)cc1F)N(C1Cc2ccccc2C1)C(c1ccccc1)c1ccccc1 [Example 9, N-(2,4-Difluorophenyl)-N′-(2-indanyl)-N′-diphenyl methylurea]",53%
6,"Cc1ccccc1CN(C(=O)Nc1ccc(F)cc1F)C1Cc2ccccc2C1 [Example 10, N-(2,4-Difluorophenyl)-N′-(2-indanyl)-N′-(2-methylbenzyl)urea]",72%
7,"Cc1cccc(CN(C(=O)Nc2ccc(F)cc2F)C2Cc3ccccc3C2)c1 [Example 11, N-(2,4-Difluorophenyl)-N′-(2-indanyl)-N′-(3-methylbenzyl)urea]",64%
8,"Cc1ccc(CN(C(=O)Nc2ccc(F)cc2F)C2Cc3ccccc3C2)cc1 [Example 12, N-(2,4-Difluorophenyl)-N′-(2-indanyl)-N′-(4-methylbenzyl)urea]",77%
9,"CC(C)c1ccc(CN(C(=O)Nc2ccc(F)cc2F)C2Cc3ccccc3C2)cc1 [Example 13, N-(4-Isopropylbenzyl)-N′-(2,4-difluorophenyl)-N-(2-indanyl)urea]",86%
10,"Cc1ccc(CN(C(=O)Nc2ccc(F)cc2F)C2Cc3ccccc3C2)c(C)c1 [Example 15, N-(2,4-Difluorophenyl)-N′-(2-indanyl)-N′-(2,4-dimethylbenzyl)urea]",88%
11,"Cc1ccc(C)c(CN(C(=O)Nc2ccc(F)cc2F)C2Cc3ccccc3C2)c1 [Example 16, N-(2,4-Difluorophenyl)-N′-(2-indanyl)-N′-(2,5-dimethylbenzyl)urea]",86%
12,"Cc1cc(C)c(CN(C(=O)Nc2ccc(F)cc2F)C2Cc3ccccc3C2)c(C)c1 [Example 17, N-(2,4-Difluorophenyl)-N′-(2-indanyl)-N′-(2,4,6-trimethylbenzyl)urea]",75%
13,"COc1ccccc1CN(C(=O)Nc1ccc(F)cc1F)C1Cc2ccccc2C1 [Example 19, N-(2,4-Difluorophenyl)-N′-(2-indanyl)-N′-(2-methoxybenzyl)urea]",55%
14,"COc1ccc(CN(C(=O)Nc2ccc(F)cc2F)C2Cc3ccccc3C2)c(OC)c1 [Example 20, N-(2,4-Difluorophenyl)-N′-(2-indanyl)-N′-(2,4-dimethoxybenzyl)urea]",72%

# The remaining lines, values ahead:
row,% ACAT inhibition,Compound
1,55%,"COc1cc(CN(C(=O)Nc2ccc(F)cc2F)C2Cc3ccccc3C2)cc(OC)c1OC [Example 22, N-(2,4-Difluorophenyl)-N′-(2-indanyl)-N′-(3,4,5-trimethoxybenzyl)urea]"
2,57%,"O=C(Nc1ccc(F)cc1F)N(Cc1cccs1)C1Cc2ccccc2C1 [Example 23, N-(2,4-Difluorophenyl)-N′-(2-indanyl)-N′-(2-thienylmethyl)urea]"
3,60%,"O=C(Nc1ccc(F)cc1F)N(CC1CCCCC1)C1Cc2ccccc2C1 [Example 26, N-Cyclohexylmethyl-N′-(2,4-difluorophenyl)-N-(2-indanyl)urea]"
4,58%,"Cc1cc(C)c2c(c1)CC(N(Cc1ccccc1)C(=O)Nc1ccc(F)cc1F)C2 (stereo not shown) [Example 27, N-Benzyl-N′-(2,4-difluorophenyl)-N-(4,6-dimethyl-2-indanyl)urea]"
5,56%,"COc1ccc(OC)c2c1CC(N(Cc1ccccc1)C(=O)Nc1ccc(F)cc1F)C2 [Example 28, N-Benzyl-N′-(2,4-difluorophenyl)-N-(4,7-dimethoxy-2-indanyl)urea]"
6,57%,"COc1cc(CN(C(=O)Nc2ccc(F)cc2F)C2Cc3ccccc3C2)ccc1O [Example 33, N-(2,4-Difluorophenyl)-N′-(4-hydroxy-3-methoxybenzyl)-N′-(2-indanyl)urea]"
7,58%,"COc1cc(CN(C(=O)Nc2ccc(F)cc2F)C2Cc3ccccc3C2)c(OC)c(C)c1C [Example 35, N-(2,4-Difluorophenyl)-N′-(2-indanyl)-N′-(2,5-dimethoxy-3,4-dimethylbenzyl)urea]"
8,72%,"COc1cc(C)c(CN(C(=O)Nc2ccc(F)cc2F)C2Cc3ccccc3C2)cc1C [Example 36, N-(2,4-Difluorophenyl)-N′-(2-indanyl)-N′-(4-methoxy-2,5-dimethylbenzyl)urea]"
9,93%,"Cc1cc(CN(C(=O)Nc2ccc(F)cc2F)C2Cc3ccccc3C2)c(C)cc1O [Example 37, N-(2,4-Difluorophenyl)-N′-(4-hydroxy-2,5-dimethylbenzyl)-N′-(2-indanyl)urea]"
10,89%,"Cc1cc(CN(C(=O)Nc2ccc(F)cc2F)C2Cc3ccccc3C2)c(C)c(C)c1O [Example 39, N-(2,4-Difluorophenyl)-N′-(4-hydroxy-2,3,5-trimethylbenzyl)-N′-(2-indanyl)urea]"
11,83%,"CC(C)c1cc(CN(C(=O)Nc2ccc(F)cc2F)C2Cc3ccccc3C2)cc(C(C)C)c1O [Example 40, N-(2,4-Difluorophenyl)-N′-(4-hydroxy-3,5-diisopropylbenzyl)-N′-(2-indanyl)urea]"
12,95%,"Cc1cc(O)c(C(C)(C)C)cc1CN(C(=O)Nc1ccc(F)cc1F)C1Cc2ccccc2C1 [Example 41, N-(5-tert-Butyl-4-hydroxy-2-methylbenzyl)-N′-(2,4-difluorophenyl)-N-(2-indanyl)urea]"
13,62%,"CC(C)(C)c1cc(CN(C(=O)Nc2ccc(F)cc2F)C2Cc3ccccc3C2)cc(C(C)(C)C)c1O [Example 42, N-(3,5-Di-tert-butyl-4-hydroxybenzyl)-N′-(2,4-difluorophenyl)-N-(2-indanyl)urea]"
14,63%,"O=C(Nc1ccc(F)cc1F)N(Cc1ccccc1)C1CCc2ccccc2C1 (stereo not shown) [Example 44, N-Benzyl-N′-(2,4-difluorophenyl)-N-(1,2,3,4-tetrahydro-2-naphthyl)urea]"
15,96%,"Cc1cc(O)c(C(C)C)cc1CN(C(=O)Nc1ccc(F)cc1F)C1Cc2ccccc2C1 [Example 45, N-(2,4-Difluorophenyl)-N′-(4-hydroxy-5-isopropyl-2-methylbenzyl)-N′-(2-indanyl)urea]"
16,77%,"Cc1cc(CN(C(=O)Nc2ccc(F)cc2F)C2Cc3ccccc3C2)c(C(C)C)cc1O [Example 46, N-(2,4-Difluorophenyl)-N′-(4-hydroxy-2-isopropyl-5-methylbenzyl)-N′-(2-indanyl)urea]"
17,89%,"O=C(Nc1ccc(F)cc1F)N(Cc1ccccc1)C1CCCc2ccccc2C1 (stereo not shown) [Example 49, N-Benzyl-N′-(2,4-difluorophenyl)-N-(6,7,8,9-tetrahydro-5H-6-benzocycloheptenyl)urea]"
